The subject of data set [1] is brine shrimp A. salina larvae. Description: in vivo. Format: in vivo. The following applies: Method F, 24 hour mortalities. On the procedure:
(§1) Freshly hatched brine shrimps were prepared by adding aquarium brine shrimp eggs to salt water (15 g sea salt per litre water). The following day hatchlings were separated from eggs and empty egg cases, using their phototropic movement and a Pasteur pipette.
(§2) Into each of a set of small glass vials was pipetted 195 µL of brine containing 5 shrimp larvae, using a micropipette. The solution of the test compound in 5 µL acetone was added, the vial closed and kept at 30±1°C for observation.
(§3) Dead and alive shrimps were counted, at 1 and 24 hours after treatment, using a microscope. Six concentrations and a control were used with 10 shrimps treated.
(§4) A blank test was performed for comparison of the results.
(§5) Dosages used in insect treatments were based upon the amount of compound applied to each insect. For the shrimps the final concentrations of the compounds in the immersion brine were used.
(§6) The 24 hour mortalities were used to calculate the LD50/LC50 using regression analysis of the probability percent mortality (probit) against log dose/concentration.^30 This was calculated using PoloPC software (LeOra Software, Berkeley, CA, 1994).

Data set [2] relates to adult fruit fly (D. melanogaster). Description: Method A: topical treatment of adult fruit fly. Format: in vivo, Drosophila melanogaster. The following applies: for LD50: Method A, topical, adult fruit flies, 24 hour mortalities; for activity against adult fruit flies: statement in words from LD50 values. On the procedure: A culture of fruit flies (D. melanogaster) was used in the production of adult flies (approx 0.22 mg) of about seven days.
Serial dilutions of the compounds were prepared in acetone, and volumes of approximately 0.2 µL were applied to the ventral surface of each insect, using a calibrated PAX 100 microapplicator and a 1 mL syringe.
The fruit flies, in groups of 5, were anaesthetised using carbon dioxide. Prior to recovery the flies were placed in a containing vial and kept at 30±1°C, for observations of mortality at 1, 2, 3 and 24 hours after treatment.
For this purpose solutions of 6 different concentrations and a control were employed in groups of 12 and 20 insects. Control mortalities were normally zero but occasionally rose to 5-10%.
as §5, §6

Another data set concerns adult fruit flies. Description: Method B: second method for topical treatment of adult fruit flies. Conditions: topical 1 µL acetone solution. Format: in vivo, Drosophila melanogaster. As for the experimental part:
Different dilutions of the compounds in acetone were prepared and applied to individual fruit flies using a Gilson piston micropipette.
Individual flies were held in padded forceps and 1 µL of acetone solution was applied. The acetone was allowed to evaporate before placing the fly into the vial for observation, kept at 30±1°C, following the standard methodology.
as §6

Data set [3] deals with glasshouse white fly (T. vaporariorum). Description: Method G: foliar treatment of glasshouse white fly. It counts as in vivo. Conditions: for efficacy against white fly: statement in words. As for the experimental part:
Seedlings of tomato plants were infested with adult white fly. Selected leaves of the tomato plants were excised and carefully trimmed to 3 leaflets without disturbing the infestation. These were placed in glass tubes containing water and the leaflets were then sprayed on both sides with a small sprayer delivering for each one 200 µL of a solution of the test compound dissolved in 30% acetone in water.
Controls were sprayed with the solvent alone.
Counts of insects on the individual leaflets were made immediately after spraying and then at 14 hours following.
Where single dose treatments were used (in the case of whitefly assays), no statistics are available and the results are expressed as percent effect.
Five compounds were tested, which were applied spraying 600 µL of each compound solution (prepared according to method G) on the leaves of tomato plants infested with a known number of adult whitefly. After 14 hours, the number of dead insects (or eventually of insects that disappeared) was counted. These assays were performed at room temperature, between 20 and 25°C.

The subject of data set [4] is house fly adults (M. domestica). The data set is described as follows: Method E: topical treatment of house fly adults. Format: in vivo, Musca domestica. The following applies: adult house flies. On the procedure:
A culture of an insecticide-susceptible strain, Cooper, was established. Three-day-old adult house flies (body weight about 1.8 mg) were anaesthetised with carbon dioxide. Using the PAX microapplicator, a volume of 1 µL of acetone solution of the test compounds was applied to the dorsal cuticle, holding the fly in padded forceps.
Groups of flies were placed into closed vials, kept at 30 ±1°C, for observation.
as §6

A further data set has as its system fruit fly larvae. Description: Method D: topical treatment of fruit fly larvae. Conditions: for LD50: Method D, topical, fruit fly larvae; for toxicity for fruit fly larvae compared with adult flies: statement in words. Format: in vivo, Drosophila melanogaster. On the procedure:
Fruit fly larvae were separated from the growing medium and second and third instars were topically treated with 0.2 µL acetone solutions of the compounds using a PAX microapplicator.
Larvae were held in padded forceps for dosing and then placed on moistened filter paper, at 30±1°C, for observation.
as §6

The next data set can be described thus: in vivo. Format: in vivo. The following applies: in vivo; Method F, brine shrimp larvae, 24 hour mortalities. On the procedure: as §1, §2, §3, §4, §5, §6

This is an account of results in EP1464649A2, “Sugar derivatives comprising oxiranes or alpha,beta-unsaturated gamma-lactones, process for their preparation and their utilisation as pesticides” (Instituto Politécnico de Santarém / Escola Superior Agraria, priority 2003, dated 2004).

In brackets after ≈: the same amount, converted by molar mass. Entries after “also recorded” stand apart in the source; their conditions may differ.

With `CC1=C[C@H]([C@H]2O[C@@H]3OC(C)(C)O[C@@H]3[C@H]2OCc2ccccc2)OC1=O` [Compound 1, 3-O-benzyl-6,7-dideoxy-1,2-O-isopropylidene-7-methyl-α-D-gluco-oct-6-enefuranurono-8,5-lactone], the LC50 (usually the concentration that kills 50% of the test population) in data set [1] was 100.62 µg/mL (≈ 290 µM). Also, in data set [2], the LD50 was 0.00002 µg/insect and the “activity against adult fruit flies” value is reported as “extremely active”.
Consider `CC1=C[C@H]([C@H]2O[C@@H]3OC(C)(C)O[C@@H]3[C@@H]2OCc2ccccc2)OC1=O` [Compound 2, 3-O-benzyl-6,7-dideoxy-1,2-O-isopropylidene-7-methyl-α-D-alo-oct-6-enefuranurono-8,5-lactone], for which, in the data set on adult fruit flies, the LD50 was determined as 0.00398 µg/insect. The molecule also showed a 50% lethal concentration (LC50) in data set [1] of 64.30 µg/mL (≈ 186 µM). The “activity against adult fruit flies” value in data set [2] is given as “extremely active”.
Take `CC1(C)O[C@H]2O[C@H]([C@H]3C=CC(=O)O3)[C@@H](OCc3ccccc3)[C@H]2O1` [Compound 3, 3-O-benzyl-6,7-dideoxy-1,2-O-isopropylidene-α-D-alo-oct-6-enefuranurono-8,5-lactone]: the “% Control of White Fly” value in data set [3] (foliar, 14 h, 1.3 ug/mL) came to 0%. In data set [1], this molecule gave an LC50 of 144.71 µg/mL (≈ 435 µM). Besides, in data set [2], the LD50 is 5.02x10^-6 µg/insect and the “activity against adult fruit flies” value is “extremely active”.
As for `CC1(C)O[C@H]2O[C@H]([C@H]3C=CC(=O)O3)[C@H](OCc3ccccc3)[C@H]2O1` [Compound 4, 3-O-benzyl-6,7-dideoxy-1,2-O-isopropylidene-α-D-gluco-oct-6-enefuranurono-8,5-lactone], the “% Control of White Fly” value in data set [3] (foliar, 14 h, 2.5 ug/mL) amounted to 50%. Further, the “efficacy against white fly” value in data set [3] is “show efficacy as insecticides; also recorded: promising for activity against the white fly”. In addition, the median lethal concentration (LC50) in data set [1] is recorded as 358.92 µg/mL (≈ 1080 µM). Further, in data set [2], the LD50 was 0.00012 µg/insect.
In the case of `CC(=O)OC[C@H]1OC(=O)C(Br)=C[C@@H]1OC(C)=O` [Compound 5, 4,6-di-O-acetyl-2-bromo-2,3-dideoxy-D-erythro-hex-2-enone-1,5-lactone], the LC50 in data set [1] worked out at 38.36 µg/mL (≈ 125 µM). For the same molecule, the LD50 in data set [4] is 1.065 µg/insect; with fruit fly larvae, 4.75 µg/insect; in data set [2], 0.00016 µg/insect. Besides, the “toxicity for fruit fly larvae compared with adult flies” value in the data set with fruit fly larvae is “less toxic for larvae than for adult flies”.
With `COC1OC(C2CC(C)([Se]c3ccccc3)C(=O)O2)C2OC12` [Compound 6, methyl (7R)-/(7S)-2,3-anhydro-6,7-dideoxy-7-methyl-7-phenylselenyl-β-L-gulo-octofuranurono-8,5-lactone], in data set [3] (Concentration 1.3 µg/mL, sprayed tomato leaves, 14 hours), the “% Control of White Fly” value stood at 0%. In data set [1], the 50% lethal concentration (LC50) was determined as 125.48 µg/mL (≈ 340 µM). This molecule also returned an LD50 in data set [2] of 0.00015 µg/insect.
`CC1(C)OC2OC(C3CC(C)([Se]c4ccccc4)C(=O)O3)C(OCc3ccccc3)C2O1` [Compound 8, (7R)-/(7S)-3-O-Benzyl-6,7-dideoxy-1,2-O-isopropylidene-7-methyl-7-phenylselenyl-α-D-gluco-octofuranurono-8,5-lactone] gave an LC50 in data set [1] of 220.41 µg/mL (≈ 438 µM). Also, the LD50 is recorded as 0.644 µg/insect in data set [4] and 0.00037 µg/insect in data set [2]. For the same molecule, in the data set on fruit fly larvae, the “toxicity for fruit fly larvae compared with adult flies” value is “less toxic for larvae than for adult flies”.
In the data set “in vivo”, `O=[N+]([O-])NC1=NCCN1Cc1ccc(Cl)nc1` [Imidacloprid, reference compound] displayed a 50% lethal concentration (LC50) at 24 h of 0.0312 µg/mL (≈ 0.122 µM). Also, the LD50 in data set [2] was 0.01253 µg/insect.
Regarding “(7R)-/(7S)-3,6,7-Trideoxy-1,2-O-isopropylidene-7-methyl-7-phenylselenyl-α-D-ribo-octofuranurono-8,5-lactone [Compound 7]”, the “% Control of White Fly” value in data set [3] (Concentration 4.8 µg/mL, sprayed tomato leaves, 14 hours) is 0%. The molecule further yielded an LC50 in data set [1] of 261.04 µg/mL. Moreover, the results for the LD50 (in the data set on fruit fly larvae; in data set [2]) were 0.968 µg/insect and 0.0002 µg/insect, respectively.
On to “Methyl 2,3;5,6-Dianhydro-β-L-gulofuranoside [Compound 9]”, for which, in data set [3] (Concentration 2.5 µg/mL, sprayed tomato leaves, 14 hours), the “% Control of White Fly” value was 85%. In addition, the “efficacy against white fly” value in data set [3] is given as “show efficacy as insecticides; also recorded: promising for activity against the white fly”. This molecule also returned a median lethal concentration (LC50) in data set [1] of 671.50 µg/mL. For the same molecule, in data set [2], the LD50 amounted to 0.00003 µg/insect and the “activity against adult fruit flies” value was “extremely active”.
